Eight molecules from US20230058961A1, “SUBSTITUTED HETEROCYCLICS WITH THERAPEUTIC ACTIVITY IN HIV” (New York Blood Center, Inc., priority 2019, published 2023) can be followed below.

One may read the IC50 as the concentration that inhibits the measured activity by half.

One data set in a line: in vitro. The following applies: human.
The next data set concerns TZM-bl cells. Conditions: human, 3 days.
For the next data set, the system named is pseudovirus HIV-1 HXB2. In words: organism not typed. In kind it is cell-based. Conditions: anti-HIV-1 activity, single-cycle assay, TZM-bl cells, pseudovirus HIV-1 HXB2; read-out: IC50.
The subject of data set [1] is panel of HIV-1 Env Pseudoviruses (49 clones of clinical isolates, subtypes A, B, C, D, Arec). The format is cell-based. The following applies: 49 HIV-1 clones of clinical isolates.

Protocol for TZM-bl cells: (§1) The anti-HIV-1 activity was assessed in a single-cycle assay by infecting TZM-bl indicator cells with the pseudovirus HIV-1 HXB2 according to established procedures (F. Curreli, Y. D. Kwon, D. S. Belov, R. R. Ramesh, A. V. Kurkin, A. Altieri, P. D. Kwong, A. K. Debnath, J Med Chem 2017, 60, 3124-3153; which is incorporated herein by reference for all that it teaches about the conduct and interpretation of the assay).
(§2) The cytotoxicity of the small polycyclic molecules in TZM-bl cells was determined by using the colorimetric method CellTiter 96® AQueous One Solution Cell Proliferation Assay (MTS) (Promega) following the manufacturer's instructions. Briefly, TZM-bl cells were platted in a 96-well tissue culture plate at 1×10^4/well and cultured at 37° C. Following overnight incubation, the cells were incubated with 100 μl of the compounds at graded concentrations and cultured for 3 days. The MTS reagent was added to the cells and incubated for 4 h at 37° C. The absorbance was recorded at 490 nm.
Protocol for in vitro: as §1, §2

For the molecule `NCC(NC(=O)c1ccc(-c2ccc(C(F)(F)F)cn2)[nH]1)c1nc(CCCO)cs1` (stereo not drawn) [Compound 27, N-(2-Amino-1-(4-(3-hydroxypropyl)thiazol-2-yl)ethyl)-5-(5-(trifluoromethyl)pyridin-2-yl)-1H-pyrrole-2-carboxamide], the CC50 at 3 days in the data set “in vitro” (CC50) was more than 100 µM. In the data set with TZM-bl cells, this molecule returned a CC50 of more than 114 µM. Moreover, in the data set with pseudovirus HIV-1 HXB2, the IC50 was found to be 2.3 ± 0.3 µM.
Molecule `NCC(NC(=O)c1ccc(-c2ccc(Cl)cn2)[nH]1)c1ncc(CO)s1` (stereo not drawn) [Compound 1, N-(2-Amino-1-(5-(hydroxymethyl)thiazol-2-yl)ethyl)-5-(5-chloropyridin-2-yl)-1H-pyrrole-2-carboxamide] showed a CC50 at 3 days in “in vitro” (CC50, cytotoxicity, TZM-bl cells, MTS, 3 days) of more than 100 µM. The molecule further registered a CC50 in the data set with TZM-bl cells of 144 ± 7.5 µM. The IC50 in the data set on pseudovirus HIV-1 HXB2 stood at 0.85 ± 0.1 µM.
In the case of `CC(C)(N)C(NC(=O)c1ccc(-c2ccc(C(F)(F)F)cn2)[nH]1)c1ncc(CO)s1` (stereo not drawn) [Compound 9, N-(2-Amino-1-(5-(hydroxymethyl)thiazol-2-yl)-2-methylpropyl)-5-(5-(trifluoromethyl)pyridin-2-yl)-1H-pyrrole-2-carboxamide], in the data set “in vitro” (CC50), the CC50 at 3 days is less than 50 µM. Further, in the data set with TZM-bl cells, the CC50 came out at 74 ± 3.6 µM.
In the data set “in vitro” (CC50), `Cc1cc(-c2ccc(C(F)(F)F)cn2)[nH]c1C(=O)NC(CN)c1nc(CO)cs1` (stereo not drawn) [Compound 33, N-(2-Amino-1-(4-(hydroxymethyl)thiazol-2-yl)ethyl)-3-methyl-5-(5-(trifluoromethyl)pyridin-2-yl)-1H-pyrrole-2-carboxamide] yielded a CC50 at 3 days of 85 ± 3 µM. For the same molecule, the “anti-HIV-1 activity against panel of HIV-1 Env pseudotypes (in words)” value in data set [1] was “sub-micromolar”.
On to `Cc1cc(-c2ccc(C(F)(F)F)cn2)[nH]c1C(=O)NC(CN)c1ncc(CO)s1` (stereo not drawn) [Compound 8, N-(2-amino-1-(5-(hydroxymethyl)thiazol-2-yl)ethyl)-3-methyl-5-(5-(trifluoromethyl)pyridin-2-yl)-1H-pyrrole-2-carboxamide], for which the “anti-HIV-1 activity against panel of HIV-1 Env pseudotypes (in words)” value in data set [1] is on record as “sub-micromolar”. Besides, in the data set on TZM-bl cells, the CC50 amounted to 109 ± 2 µM.
`NCC(NC(=O)c1ccc(-c2ccc(Cl)cn2)[nH]1)c1cnc(CO)s1` (stereo not drawn) [Compound 60, N-(2-Amino-1-(2-(hydroxymethyl)thiazol-5-yl)ethyl)-5-(5-chloropyridin-2-yl)-1H-pyrrole-2-carboxamide] registered a CC50 in the data set on TZM-bl cells of more than 106 µM. Besides, in the data set with pseudovirus HIV-1 HXB2, the IC50 turned out to be 3.6 ± 0.4 µM.
On the same counts, the results for `NCC(NC(=O)c1ccc(-c2ccc(C(F)(F)F)cn2)[nH]1)c1nc(CCCO)cs1` (stereo not drawn) [Compound 28, N-(2-Amino-1-(4-(3-hydroxypropyl)thiazol-2-yl)ethyl)-5-(5-(trifluoromethyl)pyridin-2-yl)-1H-pyrrole-2-carboxamide] are 81.2 ± 1.3 µM and 0.89 ± 0.12 µM.
Taken in the same sequence, the figures for `NCC(NC(=O)c1ccc(-c2ccc(C(F)(F)F)cn2)[nH]1)c1ncc(C(O)CO)s1` (stereo not drawn) [Compound 14, N-(2-Amino-1-(5-(1,2-dihydroxyethyl)thiazol-2-yl)ethyl)-5-(5-(trifluoromethyl)pyridin-2-yl)-1H-pyrrole-2-carboxamide] were more than 113 µM and 5.9 ± 0.6 µM.
